Reference: patent US20090275667A1, “USE OF ALLICIN AS PRESERVATIVE, AS DISINFECTANT, AS ANTIMICROBIAL OR AS BIOCIDAL AGENT” (Stone Island Holdings Ltd, priority 2003, published 2009)
Values after ≈ are worked out from the molar mass of the structure shown. Values joined by “and” are separate entries in the source; they are usually repeats but may differ in a detail not shown here. Identical values can stand only once.

What was measured:
[1] = tested on: E. coli; assay: Zones of Inhibition against common chicken bacteria; type: cell-based; details: Escherichia coli
[2] = tested on: Ascosphaera aggregata; assay: MIC by broth microdilution, bee pathogens; type: cell-based; details: range 1000 ppm to 0.25 ppm
Text: (§1) We tested allicia (Allisure™ Liquid) activity against several species of entomopathogenic bacteria (Paenibacillus larvae subsp. larvae, Paenibacillus larvae subsp. pulvifaciens) and fungi (Ascosphaera apis and Ascosphaera aggregata) using broth microdilution method to determine minimum inhibitory concentration (MIC) and the agar diffusion test (Kirby-Bauer) to determine zone of inhibition. Bacterial spores were isolated from the diseased honey bee larval samples. […]
(§2) Fungal spores (Ascosphaera apis) were collected from black honey bee mummies and (Ascosphaera aggregata) spores were collected from the diseased leaf cutter bees. […] The fungal colonies were analyzed by microscopic preparations of aerial mycelia and fungal spore cysts. […]
(§3) Positive controls contained the antibiotic Tylosin (Tylan® 50, Elanco Animal Health Inc., IN) and negative controls contained no antibiotics. […] The optical densities of cultures (OD 600) were recorded 24 h and 48 h post inoculation, depending on the growth rate of the microbial species. […] Minimum bactericidal concentration values (NBC) were determined for allicin by plating out 100 μl of bacterial cultures derived from the MIC assay. […]

[3] = tested on: Ascosphaera apis; assay: MIC by broth microdilution, bee pathogens; type: cell-based; details: range 1000 ppm to 0.25 ppm
Text: as §1, §2, §3

[4] = tested on: Ascosphaera aggregata; assay: Disk diffusion test (Kirby-Bauer), zone of inhibition; type: cell-based; details: 6 mm paper disc containing 250 μg of allicin
Description: (§4) Allicin (Allisure™ Liquid) was tested against bacterial and fungal pathogens using a standard disk diffusion method (per Norrell & Messley). The aliquots of bacterial or fungal spores (100 μl of approximately 10^8-10^9 spores/ml) were plated on Mueller-Hinton agar medium, 4.0 mm depth. The 6 mm paper discs containing 250 μg of allicin or 5 μg of tylosin (positive control) were placed in the center of each plate. Plates were incubated at 33° C. and 6% CO2 and a zone of inhibition was measured 24 h, 48 h or 76 h post inoculation depending on the microbial species. All experiments were replicated at least three times.

[5] = tested on: Ascosphaera apis; assay: as above; type: cell-based; details: 6 mm paper disc containing 250 μg of allicin
Description: as §4

[6] = tested on: Paenibacillus larvae subsp. larvae; assay: as above; type: cell-based; details: 6 mm paper disc containing 250 μg of allicin
Description: as §4

[7] = tested on: Paenibacillus larvae subsp. pulvifaciens; assay: as above; type: cell-based; details: 6 mm paper disc containing 250 μg of allicin
Description: as §4

[8] = tested on: M. plutonius; assay: Investigation into bacteriostatic or bactericidal effects (Study 2); type: cell-based, Melissococcus plutonius; details: conclusion from subculture after exposure
Description: (§5) Where there was no growth in a replicate, at the end of one week the culture was plated out for single colonies on the appropriate agar. This was to determine whether the test item had bactericidal activity, where all the bacterial cells are killed, or bacteriostatic action, where the cells are unable to replicate in the presence of the substance, but will grow when it is removed. A further test, where 0.5 ml of the broth was transferred into 4.5 ml fresh broth (giving a 1:10 dilution) was also undertaken. There would still be some Allicin in the broth, but it should be present at a low enough concentration for growth not to be affected. Where growth occurred in the absence of Allicin, the broth was examined microscopically and plated out for single colonies to confirm the identity of the bacterium.

[9] = tested on: B. laterosporus; assay: as above; type: cell-based, Brevibacillus laterosporus; details: conclusion from subculture into fresh media
Description: as §5

[10] = tested on: GISA strain isolated from the UK mortality; assay: Standard agar diffusion test against a GISA strain; type: cell-based, Staphylococcus aureus
Text: Allicin in a liquid form has been tested against the GISA strain isolated from the UK mortality. In a standard agar diffusion test the strain produced a zone of 37 mm at 500 ppm (FIG. 2) and 30 mm at 300 ppm.

[11] = tested on: E. coli, Listeria, E. faecalis and other bacteria associated with animal diseases; details: laboratory tests of earlier application WO03/024437; cited from earlier work

C=CCS[S+]([O-])CC=C (centres unmarked) [allicin, Allicin]
zone of inhibition at 166 ppm ([1]; 166 ppm (1:6 dilution)): 0 mm | zone of inhibition at 1000 ppm ([1]; 1000 ppm): 17 mm | MIC [2]: 250 µg/mL (≈ 1540 µM) | MIC [3]: 250 µg/mL (≈ 1540 µM) | zone of inhibition [4]: 35-37 mm and 35-38 mm | zone of inhibition [5]: 31-35 mm | zone of inhibition [6]: 45-50 mm | zone of inhibition [7]: 24-26 mm | bacteriostatic or bactericidal effect [8]: bacteriostatic rather than bactericidal effects | bacteriostatic or bactericidal effect [9]: did not kill all bacteria | zone of inhibition at 300 ppm ([10]; Staphylococcus aureus, 300 ppm, allicin in a liquid form): 30 mm | zone of inhibition at 500 ppm ([10]; Staphylococcus aureus, 500 ppm, allicin in a liquid form): 37 mm | susceptibility of the GISA strain ([10]; recommended doses for topical use): fully susceptible | concentration at which allicin can kill the bacteria [11]: up to 500 ppm
